Several values for one entry are separate records, joined by “and”; a condition that tells them apart may be missing. Identical values can stand only once. Entries after “also recorded” stand apart in the source; their conditions may differ.
Columns and labels:
[1] = tested on: SIV-infected rhesus macaques; assay: SIV-PAH model, hemodynamics by serial right heart catheterization; assay type: in vivo, Macaca mulatta; details: for Incidence PAH ≥ 25 mm Hg 6-12 mpi: number of animals of n = 14; for Prevalence of PAH (% PAH+): n = 14, untreated 52.2
Description: To determine the effect of statin treatment on PAH, SIV-infected rhesus macaques were studied. More specifically, a non-human primate (NHP) model of HIV-associated PAH that closely mimics HIV-PAH using simian immunodeficiency virus (SIV)-infected rhesus macaques (Macaca mulatta) was used. […] Moreover, the histologic and hemodynamic manifestations of SIV-PAH closely approximate those of human PAH.
Hemodynamics were measured by serial right heart catheterizations at baseline (BL), 6 months post-infection (6 mpi), and at the end of study (10-12 mpi) (FIG. 11C, 11D). In contrast to untreated controls (Untreated/SIV Group 1), 14.3% (Table 5, 2 of 14, P=0.03) of statin-treated animals (SIV/Statin Group 2) developed elevated mean pulmonary arterial pressure (mPAP) (monkey 3316 at 25.4 mm Hg and monkey 2416 at 46.3 mm Hg) at 6 mpi (FIG. 1). Of these animals, one maintained slightly elevated mPAP until the end of the study (monkey 3316, terminal mPAP=25.7). At study termination, mPAP of monkey 2416 decreased to 21.2 mm Hg.
It was further tested whether statin treatment initiated following SIV infection could modify PAH incidence or progression (FIG. 11A, SIV/Statin Group 3; Table 6). In this cohort, 1 of 14 monkeys (Table 2, 7.1%, P=0.0097) developed PAH (animal 2916; 6 mpi mPAP=45.5) at 6 mpi.
(§1) Animals. […] Study Design and Statin treatment. […] Hemodynamic measurements through right hearth catheterization. […] Flow Cytometry. […] Cytokine measurement in plasma and BALF. […] Whole slide images were acquired by Servicebio (Woburn, Mass.). […]

[2] = tested on: SIVΔB670; assay: Plasma viral load throughout SIV infection; assay type: in vivo, simian immunodeficiency virus (SIV)
Text: Therefore, peripheral blood CD4^+ T cell levels and plasma viral load throughout SIV infection were examined.
Animals. 28 adult Chinese rhesus macaques (Macaca mulatta) aged 6-10 years old were obtained from national primate centers or vendors and housed in accordance with the NIH Guide for the Care and Use of Laboratory Animals in a BSL2^+ primate facility at the University of Georgia (National Research Council Committee for the Update of the Guide for the Care and Use of Laboratory Animals, Guide for the Care and Use of Laboratory Animals (8th ed.) (National Academies Press National Academy of Sciences., 2011). Prior to admission to the study, all animals were screened and found negative for simian retroviruses and preexisting cardiovascular disease. Study Design and Statin treatment. All cohorts were infected with SIVΔB670 (1:100 in PBS), tissue culture infectious dose of 50% (TCID50)=2.6×10^5), intravenously or mucosally as previously described (Tarantelli et al. (2018); Schweitzer, F. et al. (2019)). […] All procedures were approved by the University of Georgia Institutional Animal Care and Use Committee. Hemodynamic measurements through right hearth catheterization. Right heart catheterization was performed and analyzed using a Swan-Ganz balloon wedge pressure catheter advanced through the right atrium, right ventricle, and pulmonary artery as previously described (Tarantelli et al). Flow Cytometry. Peripheral blood and bronchoalveolar lavage fluid (BALF) were collected at baseline (BL), 6 months post infection (mpi) and at study termination (10-12 mpi), and processed for flow cytometry as previously described (Board, K. F. et al. Experimental Pneumocystis carinii pneumonia in simian immunodeficiency virus-infected rhesus macaques. The Journal of infectious diseases 187, 576-588 (2003) and Kling, H. M. et al. Relationship of Pneumocystis jiroveci humoral immunity to prevention of colonization and chronic obstructive pulmonary disease in a primate model of HIV infection. Infection and immunity 78, 4320-4330 (2010)). CD14^dimCD16^+ non-classical monocytes and CCR7^−CD163^−CD206^+ BALF macrophages were identified by flow cytometry and calculated as previously described by Schweitzer, F. et al., supra). All analyses were performed using FlowJo Analysis software (Tree Star, Inc., Ashland, Oreg.). Cytokine measurement in plasma and BALF. Quantitative analysis of cytokines and chemokines in the plasma and BALF was performed using the Cytokine 29-Plex Monkey Panel (Invitrogen, Carlsbad, Calif.) according to the manufacturer's instructions. BALF analytes were normalized on the assumption that plasma and BALF have equal urea concentrations as previously described, using Quanti Chrom Urea Assay Kit (BioAssay Systems, Destin, Fla.) (Schweitzer, F. et al., supra). Histopathology and quantification of right ventricular and lung periarteriolar collagen deposition. 5 μm thick FFPE sections of the right heart and lung were cut and stained with Masson's trichrome and 0.1% Pico Sirius Red counterstained with Weigert's hematoxylin, to reveal fibrillar collagen, respectively by the UGA CVM Histopoathology Laboratory (Athens, Ga.). […] To quantify right ventricular collagen deposition in Masson's trichrome stained sections, 170 mm^2 regions were analyzed using Image J software (imagej.nih.gov/ij), with the threshold color plugin set to RGB; bright blue collagen was selected, converted to a binary image, and measured to quantify the collagen area. […]

[3] = tested on: TGF-β; assay: Cytokine measurement in BALF (Cytokine 29-Plex Monkey Panel); assay type: in vivo, Macaca mulatta; details: both statin-treated cohorts compared to PAH+ and PAH− SIV/Untreated controls
Description: To determine if statin treatment could modify these inflammatory mediators associated with SIV-PAH, cytokine profiles in the statin-treated cohorts were compared.
Animals. 28 adult Chinese rhesus macaques (Macaca mulatta) aged 6-10 years old were obtained from national primate centers or vendors and housed in accordance with the NIH Guide for the Care and Use of Laboratory Animals in a BSL2^+ primate facility at the University of Georgia (National Research Council Committee for the Update of the Guide for the Care and Use of Laboratory Animals, Guide for the Care and Use of Laboratory Animals (8th ed.) (National Academies Press National Academy of Sciences., 2011). Prior to admission to the study, all animals were screened and found negative for simian retroviruses and preexisting cardiovascular disease. Study Design and Statin treatment. All cohorts were infected with SIVΔB670 (1:100 in PBS), tissue culture infectious dose of 50% (TCID50)=2.6×10^5), intravenously or mucosally as previously described (Tarantelli et al. (2018); Schweitzer, F. et al. (2019)). […] All procedures were approved by the University of Georgia Institutional Animal Care and Use Committee. […] Quantitative analysis of cytokines and chemokines in the plasma and BALF was performed using the Cytokine 29-Plex Monkey Panel (Invitrogen, Carlsbad, Calif.) according to the manufacturer's instructions. […]

[4] = tested on: CD14dimCD16+ non-classical monocytes; assay: Flow cytometry of peripheral blood monocytes; assay type: in vivo, Macaca mulatta; details: both statin cohorts at 6 mpi compared to SIV-PAH+ controls
Text: (§2) Among cytokine signatures associated with the SIV-PAH, MIP-1α, TNF-α, and TGF-β have been previously associated with macrophage populations that promote fibrosis. At 6 mpi, SIV-PAH^+ animals had higher numbers of peripheral blood CD14^dimCD16^+ non-classical monocytes (FIG. 14A, p=0.06) and CCR7^−CD163^−CD206^+ BALF macrophages (FIG. 14C, p=0.04) compared to SIV-PAH^− controls. Moreover, increased numbers of CD14^dimCD16^+ non-classical monocytes (FIG. 14B, left panel, p=0.04) and CD14^+ CCR7^−CD163^−CD206^+ macrophages (FIG. 14D, left panel, p=0.03) correlate with increased pulmonary pressures in SIV/Uninfected controls at 6 mpi. Given the pleiotropic effects of statin upon monocyte and macrophage skewing and cytokine secretion, it was hypothesized that statins may decrease these populations which are associated with SIV-PAH.
as §1

[5] = tested on: CCR7−CD163−CD206+ BALF macrophages; assay: Flow cytometry of BALF macrophages; assay type: in vivo, Macaca mulatta; details: Groups 2 and 3 at 6 mpi compared to both PAH+ and PAH− SIV/Untreated controls
Text: as §2, §1

[6] = tested on: right ventricle collagen deposition; assay: Right ventricular collagen deposition (Masson's trichrome); assay type: in vivo, Macaca mulatta
Text: Moreover, increases in collagen deposition within the right ventricle (FIG. 15B, P=0.004; FIG. 15C) and small pulmonary arteries (FIG. 15D, P=0.0005) correlated with increased pulmonary pressures in SIV/Uninfected controls. Given the substantial dampening of pro-fibrotic immune phenotypes that occurs with statin treatment, right ventricular and lung periarteriolar collagen deposition were examined following statin treatment.
as §1

[7] = tested on: small pulmonary arteries collagen deposition; assay: Lung periarteriolar collagen deposition (Picro-Sirius Red); assay type: in vivo, Macaca mulatta
[8] = SIV/Statin Group 2, individual animals
[9] = SIV/Statin Group 3, individual animals
[10] = statin-treated cohorts compared with SIV-PAH− controls

In the case of `CC(C)c1c(C(=O)Nc2ccccc2)c(-c2ccccc2)c(-c2ccc(F)cc2)n1CC[C@@H](O)C[C@@H](O)CC(=O)O` [atorvastatin], the “PAH Status” value [1, 8] is reported as “PAH− (PAH is defined as mPAP≥25 mm Hg); also recorded: PAH+ (PAH is defined as mPAP≥25 mm Hg)”, the “Peak mPAP (mm Hg)” value [1, 8] is reported as 15.2 mm Hg and 46.3 mm Hg and 23.2 mm Hg (2×) and 25.7 mm Hg and 19.2 mm Hg and 17.6 mm Hg and 20.2 mm Hg and 17.4 mm Hg and 16.6 mm Hg and 17.1 mm Hg and 22.0 mm Hg and 20.6 mm Hg and 20.7 mm Hg and the “Incidence PAH ≥ 25 mm Hg 6-12 mpi” value ([1]; SIV/Statin Group 2: atorvastatin 10 mg/day orally from 1 week prior to SIV infection) is reported as 2. The “Prevalence of PAH (% PAH+)” value ([1]; SIV/Statin Group 2: atorvastatin from 1 week prior to SIV infection) was 14.3%, the “Prevalence of PAH (% PAH+)” value ([1]; SIV/Statin Group 2: atorvastatin from 1 week prior to SIV infection, listed as Statin) was 14.3% and the “mPAP at 6 mpi of animals that developed elevated mPAP” value ([1]; SIV/Statin Group 2, monkey 3316 and monkey 2416) was 25.4 mm Hg and 46.3 mm Hg. For the same compound, the “terminal mPAP of animals that developed elevated mPAP” value ([1]; SIV/Statin Group 2, monkey 3316 and monkey 2416, study termination) was 25.7 mm Hg and 21.2 mm Hg, the “PAH Status” value [1, 9] was “PAH− (PAH is defined as mPAP≥25 mm Hg); also recorded: PAH+ (PAH is defined as mPAP≥25 mm Hg)” and the “Peak mPAP (mm Hg)” value [1, 9] was 21.4 mm Hg and 16.8 mm Hg and 13.2 mm Hg and 23.6 mm Hg and 45.5 mm Hg and 22.9 mm Hg and 24.1 mm Hg and 18.9 mm Hg and 20.2 mm Hg and 19.8 mm Hg and 24.4 mm Hg and 19.9 mm Hg. The “Incidence PAH ≥ 25 mm Hg 6-12 mpi” value ([1]; SIV/Statin Group 3: atorvastatin 10 mg/day orally from 4 months following SIV infection) was 1, the “Prevalence of PAH (% PAH+)” value ([1]; SIV/Statin Group 3: atorvastatin from 4 months following SIV infection) was 7.1% and the “Prevalence of PAH (% PAH+)” value ([1]; SIV/Statin Group 3: atorvastatin from 4 months following SIV infection, listed as Statin) was 7.1%. For the same compound, the “6 mpi mPAP of the animal that developed PAH” value ([1]; SIV/Statin Group 3, animal 2916) was 45.5, the “incidence of PAH” value ([1]; treatment initiated during the early chronic disease stage) was “reduced incidence of PAH compared to untreated animals” and the “development of SIV-associated PAH” value ([1]; treatment of healthy macaques prior to and throughout SIV infection) was “prevented the development of SIV-associated PAH”. The “Peak viral load (no. of RNA copies/mL)” value [2, 8] was 8.1 × 10^6 RNA copies/mL and 7.9 × 10^6 RNA copies/mL and 1.6 × 10^7 RNA copies/mL and 1.3 × 10^7 RNA copies/mL and 7.3 × 10^6 RNA copies/mL and 1.7 × 10^7 RNA copies/mL and 1.8 × 10^7 RNA copies/mL and 4.9 × 10^7 RNA copies/mL and 1.1 × 10^7 RNA copies/mL and 9.3 × 10^6 RNA copies/mL and 3.7 × 10^7 RNA copies/mL and 5.0 × 10^7 RNA copies/mL and 1.0 × 10^7 RNA copies/mL and 5.0 × 10^6 RNA copies/mL, the “Viral set point (no. of RNA copies/mL)” value [2, 8] was 3.0 × 10^4 RNA copies/mL and 6.1 × 10^3 RNA copies/mL and 1.8 × 10^6 RNA copies/mL and 1.7 × 10^6 RNA copies/mL (2×) and 9.9 × 10^5 RNA copies/mL and 2.7 × 10^5 RNA copies/mL and 1.3 × 10^4 RNA copies/mL and 8.8 × 10^4 RNA copies/mL and 3.5 × 10^5 RNA copies/mL and 4.6 × 10^4 RNA copies/mL and 2.9 × 10^6 RNA copies/mL and 1.4 × 10^5 RNA copies/mL and 1.2 × 10^5 RNA copies/mL and the “Peak viral load (no. of RNA copies/mL)” value ([2]; SIV/Statin Group 3 (treatment started 4 months following infection), individual animals) was 2.4 × 10^7 RNA copies/mL and 1.6 × 10^7 RNA copies/mL and 1.2 × 10^7 RNA copies/mL and 4.7 × 10^7 RNA copies/mL and 4.3 × 10^7 RNA copies/mL and 2.2 × 10^7 RNA copies/mL and 1.0 × 10^6 RNA copies/mL and 8.4 × 10^5 RNA copies/mL and 8.3 × 10^6 RNA copies/mL and 7.3 × 10^6 RNA copies/mL and 9.6 × 10^6 RNA copies/mL and 8.8 × 10^6 RNA copies/mL and 2.9 × 10^7 RNA copies/mL and 5.8 × 10^6 RNA copies/mL. For the same compound, the “Viral set point (no. of RNA copies/mL)” value [2, 9] was 1.4 × 10^5 RNA copies/mL and 4.1 × 10^3 RNA copies/mL and 1.1 × 10^6 RNA copies/mL and 7.8 × 10^2 RNA copies/mL and 1.4 × 10^6 RNA copies/mL and 1.2 × 10^7 RNA copies/mL and 1.5 × 10^4 RNA copies/mL and 3.0 × 10^2 RNA copies/mL and 1.1 × 10^5 RNA copies/mL and 1.8 × 10^6 RNA copies/mL and 4.4 × 10^5 RNA copies/mL and 2.8 × 10^3 RNA copies/mL and 4.0 × 10^5 RNA copies/mL and 9.0 × 10^3 RNA copies/mL, the “viral load compared to SIV/Untreated controls” value ([2]; both statin-treated cohorts, throughout SIV infection) was “did not significantly alter; also recorded: does not significantly affect” and the “levels of BALF TGF-β at 6 mpi” value [3] was “significantly lower”. The “number of CD14dimCD16+ non-classical monocytes” value [4] was “significantly lower”, the “number of CCR7−CD163−CD206+ BALF macrophages” value [5] was “significantly reduced” and the “right ventricle collagen deposition” value ([6]; both statin-treated cohorts compared to SIV-PAH+) was “significantly less collagen deposition”. The “right ventricle collagen deposition” value [6, 10] was “considerably less collagen deposition”, the “small pulmonary arteries collagen deposition” value ([7]; statin-treated cohorts compared to SIV-PAH+) was “significantly less collagen deposition” and the lung collagen deposition [7, 10] was “considerably less collagen deposition”.

From patent US20220233542A1, “COMPOSITIONS AND METHODS FOR PREVENTING OR TREATING HUMAN IMMUNODEFICIENCY VIRUS ASSOCIATED PULMONARY ARTERIAL HYPERTENSION” (University of Georgia Research Foundation, priority 2019, published 2022)
